Source: US6624182B1, “Hydroxyphenylvinylthiazoles” (Ciba Specialty Chemicals Corporation, priority 1999, dated 2003)

Experiments:
[1] = test system: A. niger; experiment: Determination of the minimum inhibitory concentration (MIC value) in microtitre plates; format: cell-based, Aspergillus niger ATCC 6275; details: Aspergillus niger, 120 h; optical density at 620 nm, 5 days at 28° C., MIC = ≦20% growth; tested at 100; 10 and 1 ppm (approximate values); (2), (3), (4) at 120; 60; 30; 15; 7.5; 3.75 ppm
How it was run: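 A. niger ATCC 6275 spores, adjusted to 1−5×10^6 KBE/ml and diluted 1:100 in Sabouraud 2% glucose bouillon, were exposed to 2-fold dilutions of DMSO-dissolved compounds for 5 days at 28°C. Growth read as OD at 620 nm. MIC is the lowest concentration giving ≤20% growth versus growth control, tested in duplicate.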

[2] = test system: P. aeruginosa; experiment: as above; format: cell-based, Pseudomonas aeruginosa CIP A-22; details: Pseudomonas aeruginosa; optical density at 620 nm, 48 hours at 37° C., MIC = ≦20% growth; tested at 100; 10 and 1 ppm (approximate values); (2), (3), (4) at 120; 60; 30; 15; 7.5; 3.75 ppm
How it was run: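 P. aeruginosa CIP A-22 at 1−5×10^6 KBE/ml, diluted 1:100 in CASO bouillon, exposed to 1:2 serial dilutions of DMSO-dissolved compound for 48 h at 37 °C, in duplicate. Growth read by OD 620 nm; MIC is the lowest concentration giving ≤20% growth relative to growth control.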

MIC [1] | MIC [2] | SMILES
> 100 µg/mL | > 100 µg/mL | Oc1ccc(/C=C/c2nc(-c3ccc(F)cc3)cs2)cc1 [Compound of formula (2)]
> 100 µg/mL | > 100 µg/mL | Oc1ccc(/C=C/c2nc(-c3ccccc3)cs2)cc1 [Compound of formula (4)]
> 100 µg/mL | > 100 µg/mL | CC(C)(C)c1csc(/C=C/c2ccccc2O)n1 [Compound of formula (3)]
